Ends that are not written are not given here.
Assays:
[1] = test system: scopolamine-induced amnesia; test: Y-shaped maze test, spontaneous alternation behavior, scopolamine-induced amnesia; format: in vivo; settings: male ddY mice, scopolamine 1 mg/kg s.c.
Protocol: Male ddY mice (about 7 weeks old) were used (n=15 to 75), and provided with food and water ad libitum. Asn-Ile-Pro-Pro-Leu-Thr-Gln-Thr-Pro-Val-Val-Val-Pro-Pro-Phe-Leu-Gln-Pro-Glu (SEQ ID NO: 1) was used as a test substance in amounts of 0.05 nmol/kg body weight (0.1 μg/kg body weight), 0.5 nmol/kg body weight (1 μg/kg body weight), 1.5 nmol/kg body weight (3 μg/kg body weight), 5 nmol/kg body weight (10 μg/kg body weight), 50 nmol/kg body weight (100 μg/kg body weight), and 500 nmol/kg body weight (1,000 μg/kg body weight). The test substance was administered as a single dose orally to mice 60 minutes before performing a Y-shaped maze test for evaluating spontaneous alternation behavior. Thirty minutes before performing the Y-shaped maze test, scopolamine was subcutaneously administered in an amount of 1 mg/kg body weight into the back to induce brain dysfunction (memory disorder and/or cognition disorder) in mice. In the Y-shaped maze test, as an experiment device, a Y-shaped maze was used in which the length for each arm was 40 cm; the wall height was 12 cm; the floor width was 3 cm; the upper part width was 10 cm; and three arms were connected to each other at an angle of 120°. Each mouse was placed in the end of any of the arms of the Y-shaped maze and allowed to explore freely in the maze over 8 minutes, and the sequence of the arms to which the mouse moved was recorded. The number of movements of the mouse to the arms within the measurement time was counted and used as the total number of entries; in the sequence, the combination in which three different arms were selected in succession (for example, with the three arms respectively called A, B, and C, if the sequence of the aims entered is ABCBACACB, the count is 4 inclusive of overlapping) was investigated, and the count number was used as the number of spontaneous alternation behaviors. The change in spontaneous alternation behavior (%) was calculated by dividing the number of spontaneous alternation behaviors by a number obtained by subtracting 2 from the total number of entries, and multiplying the resultant number by 100, and the percentage was used as an indicator of the spontaneous alternation behavior. […] The measured values were expressed as mean±standard error for each group. The significance of difference between the control group and the scopolamine control group was tested by Student's t-test. The significance of difference between the scopolamine control group and the peptide-administered group was tested by Dunnett's multiple comparison test after one-way analysis of variance.
Male ddY mice (about 7 weeks old) were used (n=15 to 45), and provided with food and water ad libitum. As test substances, Asn-Ile-Pro-Pro-Leu-Thr-Gln-Thr-Pro-Val-Val-Val-Pro-Pro-Phe-Leu-Gln-Pro-Glu (SEQ ID NO: 1) at 50 nmol/kg body weight (100 μg/kg body weight), or […]([…]; SEQ ID NO: 2) at 50 nmol/kg body weight (120 μg/kg body weight), or Ile-Pro-Pro-Leu-Thr-Gln-Thr-Pro-Val-Val-Val-Pro-Pro-Phe-Leu-Gln-Pro-Glu (IPPLTQTPVVVPPFLQPE; SEQ ID NO: 7) at 50 nmol/kg body weight (100 μg/kg body weight), or Asn-Ile-Pro-Pro-Leu-Thr-Gln-Thr-Pro-Val-Val-Val-Pro-Pro-Phe-Leu-Gln-Pro (NIPPLTQTPVVVPPFLQP; SEQ ID NO: 8) at 50 nmol/kg body weight (100 μg/kg body weight), or Thr-Gln-Thr-Pro-Val-Val-Val-Pro-Pro-Phe (TQTPVVVPPF; SEQ ID NO: 9) at 50 nmol/kg body weight (50 μg/kg body weight) were used. The percentage of change in the spontaneous alternation behavior was determined as described in Example 4, and used as an indicator of the spontaneous alternation behavior. The measured values were expressed as mean±standard error for each group. The significance of difference between the control group and the scopolamine control group was tested by Student's t-test. The significance of difference between the scopolamine control group and each peptide-administered group was tested by Dunnett's multiple comparison test after one-way analysis of variance. […]

memory retention = test: novel object recognition test for evaluating memory retention; format: in vivo; settings: male ddY mice; single oral dose 500 nmol/kg body weight (1,000 μg/kg) 60 min before training trial; retention trial 48 hours later; FIG. 5
Protocol: Male ddY mice (about 7 weeks old) were used (n=14 to 15), and provided with food and water ad libitum. As a test substance, 500 nmol/kg body weight (1,000 μg/kg body weight) of Asn-Ile-Pro-Pro-Leu-Thr-Gln-Thr-Pro-Val-Val-Val-Pro-Pro-Phe-Leu-Gln-Pro-Glu (SEQ ID NO: 1) was used. The test substance was administered as a single dose orally to mice 60 minutes before performing a novel object recognition test for evaluating memory retention. In the novel object recognition test, a 30×30×30 cm box was used as an experiment device. As a conditioning operation, a mouse was placed in an experiment device in which a floorcloth was laid for 5 minutes, and allowed to explore freely in the device. A training trial was performed the day following the conditioning operation. […] Sixty minutes after orally administering the test substance or water, a mouse was placed in the experiment device for 5 minutes, and the time (second) was measured during which the mouse explored by approaching each object to be within 1 cm therefrom. […] (However, the state in which a mouse rides on an object is excluded.) The percentages of the times were determined during which two objects were explored in each of the training trial and the retention trial. The percentage (%) of the exploration time for each object was expressed as mean±standard error for each of the groups. […]

[2] = single oral dose 500 nmol/kg body weight, vs scopolamine control group, FIG. 4, FIG. 7, FIG. 9
[3] = single oral dose 50 nmol/kg body weight, vs scopolamine control group, FIG. 3, FIG. 6

Sequence	amnesia-preventing action (change in spontaneous alternation behavior) [1, 2]	amnesia-preventing action (change in spontaneous alternation behavior) [1, 3]	other results
SWMHQPHQPLPPTVMFPPQ [SEQ ID NO: 17]	significant difference could not be confirmed		
NIPPLTQTPVVVPPFLQPEVM [SEQ ID NO: 2]		shown to have amnesia-preventing actions	
LQSWMHQPHQPLPPTVMFPPQSVL [SEQ ID NO: 4]	shown to have amnesia-preventing actions		
PLTQTPVVVPPFLQPE [SEQ ID NO: 12]	shown to have amnesia-preventing actions		
PVVVPPFLQPE [SEQ ID NO: 14]	shown to have amnesia-preventing actions		
IPPLTQTPVVVPPFLQPE [SEQ ID NO: 7]		shown to have amnesia-preventing actions	
LTQTPVVVPPFLQPE [SEQ ID NO: 13]	shown to have amnesia-preventing actions		
NIPPLTQTPVVVPPFLQPE [SEQ ID NO: 1]	shown to have amnesia-preventing actions	shown to have amnesia-preventing actions	memory-enhancing action (percentage of exploration time for novel object) (memory retention): shown to have a memory-enhancing action; amnesia-preventing action (change in spontaneous alternation behavior) ([1]; single oral dose 60 min before test, 0.05 nmol/kg body weight to 500 nmol/kg body weight (0.1 to 1,000 μg/kg), FIG. 2): shown to have an amnesia-preventing action
MHQPHQPLPPTVMFPPQSVL [SEQ ID NO: 16]	shown to have amnesia-preventing actions		
NIPPLTQTPVVVPPFLQP [SEQ ID NO: 8]		significant difference compared to the scopolamine control group could not be confirmed	
PPLTQTPVVVPPFLQPE [SEQ ID NO: 10]	shown to have amnesia-preventing actions		
TQTPVVVPPFLQPE [SEQ ID NO: 11]		shown to have an amnesia-preventing action	
TQTPVVVPPF [SEQ ID NO: 9]		significant difference compared to the scopolamine control group could not be confirmed	
SWMHQPHQPLPPTVMFPPQSVL [SEQ ID NO: 3]	shown to have amnesia-preventing actions		amnesia-preventing action (change in spontaneous alternation behavior) ([1]; single oral dose 150 nmol/kg body weight to 500 nmol/kg body weight (380 to 1,280 μg/kg), FIG. 8): shown to have an amnesia-preventing action
VVVPPFLQPE [SEQ ID NO: 15]	shown to have amnesia-preventing actions		

From patent US20120328735A1, “PROCESS FOR PREPARING CASEIN-DERIVED PEPTIDES BY FERMENTATION OF LACTIC ACID BACTERIA” (priority 2011, published 2012)
